Measurements: PubChem BioAssay AID1259407 (Chemical Carcinogenesis Research Information System (CCRIS), 2018)
Calls of active or inactive are those of the source. How the calls were made is not given here.

Test system: CCRIS mutagenicity, Ames/micronucleus/aberration tests
Test: CCRIS mutagenicity studies

| SMILES | mutagenic call (Test System: AMES SALMONELLA TYPHIMURIUM, Strain/Indicator: TA98, Metabolic Activation: NONE, Method: STANDARD PLATE) | mutagenic call (Test System: AMES SALMONELLA TYPHIMURIUM, Strain/Indicator: TA98, Metabolic Activation: RAT, LIVER, S-9, PHENOBARBITAL AND 5,6-BENZOFLAVONE, Method: STANDARD PLATE) | mutagenic call (Test System: AMES SALMONELLA TYPHIMURIUM, Strain/Indicator: TA100, Metabolic Activation: NONE, Method: STANDARD PLATE) | mutagenic call (Test System: AMES SALMONELLA TYPHIMURIUM, Strain/Indicator: TA100, Metabolic Activation: RAT, LIVER, S-9, PHENOBARBITAL AND 5,6-BENZOFLAVONE, Method: STANDARD PLATE) | mutagenic call (Test System: AMES SALMONELLA TYPHIMURIUM, Strain/Indicator: TA1535, Metabolic Activation: NONE, Method: STANDARD PLATE) | mutagenic call (Test System: AMES SALMONELLA TYPHIMURIUM, Strain/Indicator: TA1535, Metabolic Activation: RAT, LIVER, S-9, PHENOBARBITAL AND 5,6-BENZOFLAVONE, Method: STANDARD PLATE) | mutagenic call (Test System: AMES SALMONELLA TYPHIMURIUM, Strain/Indicator: TA1537, Metabolic Activation: NONE, Method: STANDARD PLATE) | mutagenic call (Test System: AMES SALMONELLA TYPHIMURIUM, Strain/Indicator: TA1537, Metabolic Activation: RAT, LIVER, S-9, PHENOBARBITAL AND 5,6-BENZOFLAVONE, Method: STANDARD PLATE) | mutagenic call (Test System: E. COLI, Strain/Indicator: WP2 UVRA, Metabolic Activation: NONE, Method: STANDARD PLATE) | mutagenic call (Test System: E. COLI, Strain/Indicator: WP2 UVRA, Metabolic Activation: RAT, LIVER, S-9, PHENOBARBITAL AND 5,6-BENZOFLAVONE, Method: STANDARD PLATE) | mutagenic call (Test System: AMES SALMONELLA TYPHIMURIUM, Strain/Indicator: TA98, Metabolic Activation: NONE) | mutagenic call (Test System: AMES SALMONELLA TYPHIMURIUM, Strain/Indicator: TA98, Metabolic Activation: RAT, LIVER, S-9, AROCLOR 1254) | mutagenic call (Test System: AMES SALMONELLA TYPHIMURIUM, Strain/Indicator: TA102, Metabolic Activation: NONE) | mutagenic call (Test System: AMES SALMONELLA TYPHIMURIUM, Strain/Indicator: TA102, Metabolic Activation: RAT, LIVER, S-9, AROCLOR 1254) | mutagenic call (Test System: AMES SALMONELLA TYPHIMURIUM, Strain/Indicator: TA104, Metabolic Activation: NONE) | mutagenic call (Test System: AMES SALMONELLA TYPHIMURIUM, Strain/Indicator: TA104, Metabolic Activation: RAT, LIVER, S-9, AROCLOR 1254) | mutagenic call (Test System: UDS RAT HEPATOCYTES, Strain/Indicator: BROMODEOXYURIDINE INCORP, Metabolic Activation: NONE) | mutagenic call (Test System: UDS RAT HEPATOCYTES, Strain/Indicator: BROMODEOXYURIDINE INCORP, Metabolic Activation: NONE, Method: FLOW CYTOMETRIC ANALYSIS) | mutagenic call (Test System: UDS RAT HEPATOCYTES, Strain/Indicator: THY INCORP, Metabolic Activation: NONE, Method: AUTORADIOGRAPHY) | mutagenic call (Test System: UDS RAT HEPATOCYTES, Strain/Indicator: THY INCORP, Metabolic Activation: NONE, Method: LIQUID SCINTILLATION COUNTING) |
| --- | --- | --- | --- | --- | --- | --- | --- | --- | --- | --- | --- | --- | --- | --- | --- | --- | --- | --- | --- | --- |
| CC(CNC(=O)c1cccnc1)NC(=O)c1cccnc1 (stereo not given) | inactive; negative | inactive; negative | inactive; negative | inactive; negative | inactive; negative | inactive; negative | inactive; negative | inactive; negative | inactive; negative | inactive; negative | – | – | – | – | – | – | – | – | – | – |
| Cc1cccc(Nc2cc(Cl)nc(SCC(=O)O)n2)c1C | – | – | – | – | – | – | – | – | – | – | inactive; negative | inactive; negative | inactive; negative | inactive; negative | inactive; negative | inactive; negative | active; positive | inactive; negative | inactive; negative | active; positive |
